The text below walks through data of US8883796B2, “Biphenyl derivatives, pharmaceutical composition comprising the same, and preparation method thereof” (Korea Institute of Science and Technology, priority 2013, dated 2014).

This assay concerns the target T1, Human recombinant 5-HT7 receptor (Homo sapiens, UniProt P34969).
T1 construct: expressed in transfected cells; host or cells: CHO cells (membrane preparation)
The experiment in a line: Binding affinity for 5-HT7 serotonin receptor ([3H]LSD radioligand binding). As to conditions: 1 nM [3H]LSD, human recombinant 5-HT7 receptor expressed in CHO cells; for Ki: 25° C., 90 minutes; for inhibition at 10 µM: 10 μM test compound. How it is done: % inhibition at 10 μM and binding affinity (Ki) of the novel compound represented by the Chemical Formula 1 according to the present disclosure for the 5-HT7 serotonin receptor were measured as follows.
Human recombinant 5-HT7 receptor expressed in CHO cells was used. A reaction mixture (final concentration 0.25 mL) prepared from 1 nM [^3H]LSD, 5-HT7 receptor membrane (15 μg/well), test compound of various concentrations and 50 mM Tris-HCl buffer (pH 7.4) containing 10 mM MgCl2 and 0.1 mM EDTA was incubated at 25° C. for 90 minutes. After the incubation, reaction was terminated by rapid filtration through Whatman GF/C glass fiber filter previously soaked in 0.3% polyethyleneimine using a Brandel harvester and washed with cold 50 mM Tris-HCl buffer. The filter was covered with MeltiLex, sealed in a sample bag and dried in an oven. Counting was carried out using MicroBeta (Wallac). Nonspecific binding was measured in the presence of 0.5 μM mianserin. The Ki value of the test compound was obtained from nonlinear regression analysis (GraphPad Prism Program, San Diego, USA) of isotherms obtained by repeating experiments 3 times in duplicate test tubes at 10-11 varied concentrations.
The % inhibition at 10 μM and binding affinity (Ki) of the novel compound according to the present disclosure for the 5-HT7 serotonin receptor are given in Table 1.

T1 sequence (P34969 whole entry): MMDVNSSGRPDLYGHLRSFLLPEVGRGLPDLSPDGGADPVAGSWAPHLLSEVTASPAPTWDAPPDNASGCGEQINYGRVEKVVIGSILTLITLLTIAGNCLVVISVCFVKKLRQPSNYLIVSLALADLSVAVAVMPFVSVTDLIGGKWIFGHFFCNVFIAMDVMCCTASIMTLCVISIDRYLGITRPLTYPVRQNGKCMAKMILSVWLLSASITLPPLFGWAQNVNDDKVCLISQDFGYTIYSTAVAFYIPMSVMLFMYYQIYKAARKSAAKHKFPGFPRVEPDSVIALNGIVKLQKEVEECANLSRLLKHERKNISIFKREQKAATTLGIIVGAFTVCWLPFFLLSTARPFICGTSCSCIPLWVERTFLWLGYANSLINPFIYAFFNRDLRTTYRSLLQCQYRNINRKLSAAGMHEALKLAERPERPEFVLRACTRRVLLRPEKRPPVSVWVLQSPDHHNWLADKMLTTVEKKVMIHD

In general, Ki refers to the dissociation constant of the complex between target and ligand, obtained from inhibition or displacement. What is called inhibition is the percentage by which the read-out fell short of the control. Consider `c1ccc(-c2ccccc2CN2CCN(c3ccccc3)CC2)cc1` [Compound 1, 1-(biphenyl-2-ylmethyl)-4-phenylpiperazine], for which the Ki stood at 537 nM and the inhibition at 10 µM was determined as 59.7%.

With `COc1ccccc1N1CCN(Cc2ccccc2-c2ccccc2)CC1` [Compound 8, 1-(biphenyl-2-ylmethyl)-4-(2-methoxyphenyl)piperazine], the Ki was 432 nM and the inhibition at 10 µM was 95.1%.

Consider `CCOc1ccccc1N1CCN(Cc2ccccc2-c2ccccc2)CC1` [Compound 9, 1-(biphenyl-2-ylmethyl)-4-(2-ethoxyphenyl)piperazine], for which the Ki came to 192 nM and the inhibition at 10 µM turned out to be 86.2%.

`Cc1ccc(C)c(N2CCN(Cc3ccccc3-c3ccccc3)CC2)c1` [Compound 21, 1-(biphenyl-2-ylmethyl)-4-(2,5-dimethylphenyl)piperazine]: the Ki came out at 658 nM and the inhibition at 10 µM turned out to be 93.8%.

With `Cc1cc(C)cc(N2CCN(Cc3ccccc3-c3ccccc3)CC2)c1` [Compound 22, 1-(biphenyl-2-ylmethyl)-4-(3,5-dimethylphenyl)piperazine], the Ki was 367 nM and the inhibition at 10 µM came out at 84%.

`CC(C)c1ccccc1N1CCN(Cc2ccccc2-c2ccccc2)CC1` [Compound 23, 1-(biphenyl-2-ylmethyl)-4-(2-isopropylphenyl)piperazine]: the Ki was 274 nM and the inhibition at 10 µM worked out at 87%.

As to `c1ccc(-c2ccccc2CN2CCN(c3ccccc3-c3ccccc3)CC2)cc1` [Compound 24, 1-(biphenyl-2-ylmethyl)-4-(biphenyl-2-yl)piperazine], the Ki stood at 256 nM and the inhibition at 10 µM worked out at 93.8%.

With `FC(F)(F)c1cccc(N2CCN(Cc3ccccc3-c3ccccc3)CC2)c1` [Compound 25, 1-(biphenyl-2-ylmethyl)-4-(3-(trifluoromethyl)phenyl)piperazine], the Ki turned out to be 64 nM and the inhibition at 10 µM is 95.9%.

Consider `Fc1cccc(N2CCN(Cc3cccc(-c4ccccc4)c3)CC2)c1` [Compound 36, 1-(biphenyl-3-ylmethyl)-4-(3-fluorophenyl)piperazine], for which the Ki was 79 nM and the inhibition at 10 µM came out at 91.3%.

On to `Clc1ccccc1N1CCN(Cc2cccc(-c3ccccc3)c2)CC1` [Compound 38, 1-(biphenyl-3-ylmethyl)-4-(2-chlorophenyl)piperazine], for which the Ki was 66 nM and the inhibition at 10 µM amounted to 88.3%.

As for `Cc1cccc(N2CCN(Cc3cccc(-c4ccccc4)c3)CC2)c1` [Compound 47, 1-(biphenyl-3-ylmethyl)-4-(3-methylphenyl)piperazine], the Ki amounted to 15 nM and the inhibition at 10 µM amounted to 95.4%.
